From the supplement of paper PMC10307832

How the values were obtained:
Test in all cases: relative viability (nuclei count vs DMSO), 5 days (fraction); higher = more cells survive
NCI-H2405 = system: NCI-H2405
Summary of the method: (§1)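 Five library-drug doses in √10 steps were combined with a fixed anchor-drug dose, or a single drug was given alone, by pin tool to lung cancer cell lines in 1536-well plates the day after seeding. Nuclei were stained and counted after 5 days. Relative viability is the nuclei count in treated wells over that in vehicle wells, taken as the median of duplicate plates.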

EKVX = system: EKVX
Summary of the method: as §1

RERF-LC-KJ = system: RERF-LC-KJ
Summary of the method: as §1

NCI-H1734 = system: NCI-H1734
Summary of the method: as §1

HCC-827 = system: HCC-827
Summary of the method: as §1

PC-14 = system: PC-14
Summary of the method: as §1

NCI-H520 = system: NCI-H520
Summary of the method: as §1

HCC-15 = system: HCC-15
Summary of the method: as §1

NCI-H2228 = system: NCI-H2228
Summary of the method: as §1

NCI-H322M = system: NCI-H322M
Summary of the method: as §1

LK-2 = system: LK-2
Summary of the method: as §1

NCI-H1975 = system: NCI-H1975
Summary of the method: as §1

LCLC-97TM1 = system: LCLC-97TM1
Summary of the method: as §1

NCI-H1355 = system: NCI-H1355
Summary of the method: as §1

H3255 = system: H3255
Summary of the method: as §1

NCI-H1650 = system: NCI-H1650
Summary of the method: as §1

CAL-12T = system: CAL-12T
Summary of the method: as §1

NCI-H1755 = system: NCI-H1755
Summary of the method: as §1

PC-3 [JPC-3] = system: PC-3 [JPC-3]
Summary of the method: as §1

COc1cc2nccc(Oc3ccc(NC(=O)Nc4cc(C)on4)c(Cl)c3)c2cc1OC [Tivozanib] + CC1(C)CCC(c2ccc(Cl)cc2)=C(CN2CCN(c3ccc(C(=O)NS(=O)(=O)c4ccc(N[C@H](CCN5CCOCC5)CSc5ccccc5)c(S(=O)(=O)C(F)(F)F)c4)cc3)CC2)C1 [Navitoclax] (partner 0.5 µM)
relative viability (NCI-H2405; first compound 0.005 µM): 0.861
relative viability (NCI-H2405; first compound 0.01581 µM): 1.09
relative viability (NCI-H2405; first compound 0.05 µM): 0.74
relative viability (NCI-H2405; first compound 0.1581 µM): 1.02
relative viability (NCI-H2405; first compound 0.5 µM): 0.498
relative viability (EKVX; first compound 0.005 µM): 0.869
relative viability (EKVX; first compound 0.01581 µM): 0.772
relative viability (EKVX; first compound 0.05 µM): 0.982
relative viability (EKVX; first compound 0.1581 µM): 0.793
relative viability (EKVX; first compound 0.5 µM): 0.922
relative viability (RERF-LC-KJ; first compound 0.005 µM): 0.872
relative viability (RERF-LC-KJ; first compound 0.01581 µM): 0.828
relative viability (RERF-LC-KJ; first compound 0.05 µM): 1.13
relative viability (RERF-LC-KJ; first compound 0.1581 µM): 1.37
relative viability (RERF-LC-KJ; first compound 0.5 µM): 1.07
relative viability (NCI-H1734; first compound 0.005 µM): 0.865
relative viability (NCI-H1734; first compound 0.01581 µM): 0.804
relative viability (NCI-H1734; first compound 0.05 µM): 0.823
relative viability (NCI-H1734; first compound 0.1581 µM): 0.734
relative viability (NCI-H1734; first compound 0.5 µM): 0.82
relative viability (HCC-827; first compound 0.005 µM): 1.01
relative viability (HCC-827; first compound 0.01581 µM): 1.03
relative viability (HCC-827; first compound 0.05 µM): 1.02
relative viability (HCC-827; first compound 0.1581 µM): 1.05
relative viability (HCC-827; first compound 0.5 µM): 1.03
relative viability (PC-14; first compound 0.005 µM): 0.98
relative viability (PC-14; first compound 0.01581 µM): 1.04
relative viability (PC-14; first compound 0.05 µM): 1.11
relative viability (PC-14; first compound 0.1581 µM): 1.07
relative viability (PC-14; first compound 0.5 µM): 1
relative viability (NCI-H520; first compound 0.005 µM): 1.09
relative viability (NCI-H520; first compound 0.01581 µM): 0.962
relative viability (NCI-H520; first compound 0.05 µM): 0.969
relative viability (NCI-H520; first compound 0.1581 µM): 0.782
relative viability (NCI-H520; first compound 0.5 µM): 0.887
relative viability (HCC-15; first compound 0.005 µM): 0.719
relative viability (HCC-15; first compound 0.01581 µM): 0.676
relative viability (HCC-15; first compound 0.05 µM): 0.67
relative viability (HCC-15; first compound 0.1581 µM): 0.742
relative viability (HCC-15; first compound 0.5 µM): 0.728
relative viability (NCI-H2228; first compound 0.005 µM): 1.03
relative viability (NCI-H2228; first compound 0.01581 µM): 0.891
relative viability (NCI-H2228; first compound 0.05 µM): 0.754
relative viability (NCI-H2228; first compound 0.1581 µM): 0.9
relative viability (NCI-H2228; first compound 0.5 µM): 1.24
relative viability (NCI-H322M; first compound 0.005 µM): 1.23
relative viability (NCI-H322M; first compound 0.01581 µM): 1.09
relative viability (NCI-H322M; first compound 0.05 µM): 1.28
relative viability (NCI-H322M; first compound 0.1581 µM): 1.22
relative viability (NCI-H322M; first compound 0.5 µM): 1.14
relative viability (LK-2; first compound 0.005 µM): 0.819
relative viability (LK-2; first compound 0.01581 µM): 0.789
relative viability (LK-2; first compound 0.05 µM): 0.952
relative viability (LK-2; first compound 0.1581 µM): 0.802
relative viability (LK-2; first compound 0.5 µM): 0.644
relative viability (NCI-H1975; first compound 0.005 µM): 1.1
relative viability (NCI-H1975; first compound 0.01581 µM): 1.19
relative viability (NCI-H1975; first compound 0.05 µM): 1.09
relative viability (NCI-H1975; first compound 0.1581 µM): 1.06
relative viability (NCI-H1975; first compound 0.5 µM): 0.884
relative viability (LCLC-97TM1; first compound 0.005 µM): 0.412
relative viability (LCLC-97TM1; first compound 0.01581 µM): 0.288
relative viability (LCLC-97TM1; first compound 0.1581 µM): 0.413
relative viability (LCLC-97TM1; first compound 0.5 µM): 0.425
relative viability (NCI-H1355; first compound 0.005 µM): 0.844
relative viability (NCI-H1355; first compound 0.01581 µM): 0.989
relative viability (NCI-H1355; first compound 0.05 µM): 0.996
relative viability (NCI-H1355; first compound 0.5 µM): 1
relative viability (H3255; first compound 0.005 µM): 0.446
relative viability (H3255; first compound 0.01581 µM): 0.482
relative viability (H3255; first compound 0.05 µM): 0.495
relative viability (H3255; first compound 0.1581 µM): 0.328
relative viability (H3255; first compound 0.5 µM): 0.516
relative viability (NCI-H1650; first compound 0.005 µM): 1.1
relative viability (NCI-H1650; first compound 0.01581 µM): 1.2
relative viability (NCI-H1650; first compound 0.05 µM): 1.15
relative viability (NCI-H1650; first compound 0.1581 µM): 1.28
relative viability (NCI-H1650; first compound 0.5 µM): 1.53
relative viability (CAL-12T; first compound 0.005 µM): 1.11
relative viability (CAL-12T; first compound 0.01581 µM): 1.19
relative viability (CAL-12T; first compound 0.05 µM): 1.18
relative viability (CAL-12T; first compound 0.5 µM): 0.94
relative viability (NCI-H1755; first compound 0.005 µM): 0.953
relative viability (NCI-H1755; first compound 0.01581 µM): 0.949
relative viability (NCI-H1755; first compound 0.05 µM): 1.01
relative viability (NCI-H1755; first compound 0.1581 µM): 0.932
relative viability (NCI-H1755; first compound 0.5 µM): 0.916
relative viability (PC-3 [JPC-3]; first compound 0.005 µM): 0.735
relative viability (PC-3 [JPC-3]; first compound 0.01581 µM): 0.87
relative viability (PC-3 [JPC-3]; first compound 0.05 µM): 0.772
relative viability (PC-3 [JPC-3]; first compound 0.1581 µM): 0.788
relative viability (PC-3 [JPC-3]; first compound 0.5 µM): 0.809
